These results are taken from US20040127403A1, “Methods for treating and preventing Gram-positive bacteremias” (priority 2002, published 2004).

Values after ≈ are worked out from the molar mass of the structure shown. Where two headings read alike, the source gives them in different places.

One test concerns E. faecalis ATCC29212. Briefly: MIC, NCCLS broth microdilution. The test is classed as cell-based. In a few lines: (§1)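 MIC values come from NCCLS broth microdilution run in cation-adjusted Mueller-Hinton broth as well as trypticase soy broth. Ramoplanin-containing media included 0.02% BSA against plastic binding.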
For orientation: In broth dilution the organism is exposed to a series of concentrations in liquid medium.

In another test the test system is E. faecium A6343 Line-R. Briefly: MIC, NCCLS broth microdilution. The test is classed as cell-based. The following applies: Enterococcus faecium, A6343LINER. The gist of the method: as §1
Another test relates to E. faecium UA392. Description: MIC, NCCLS broth microdilution. It counts as cell-based. The following applies: Enterococcus faecium, UA392, E. faecium UA392. In a few lines:
as §1

For another test, the system named is S. epidermidis ATCC18972. Briefly: MIC, NCCLS broth microdilution. It counts as cell-based. Conditions: Staphylococcus epidermidis, ATCC18972, S. epidermidis ATCC18972.
For the next test, the system named is S. epidermidis ATCC35984. Briefly: MIC, NCCLS broth microdilution. It counts as cell-based. Conditions: Staphylococcus epidermidis, ATCC35984, S. epidermidis ATCC35984.
Test [1] relates to VanA strain of E. faecium (VRE). Description: Suppression of VRE in a mouse colonization model. It counts as in vivo, Mice. How it is done:
Mice were colonized with a clinical isolate VanA strain of E. faecium (VRE) isolated from a septicemic patient. A single inoculation of 5×10^8 cfu VRE by oral gavage (Day 0) was followed by treatment with vancomycin in the drinking water to maintain colonization. On day 22, each group received the same vancomycin-containing drinking water. One group also received ramoplanin (100 μg/mL) in its drinking water. The dose of ramoplanin per day was estimated to be 15 mg/kg, based on a standard water consumption of 150 mL/kg/day. Treatment with ramoplanin was discontinued on Day 29, and vancomycin treatment was discontinued on Day 36. The control group consisted of five mice, while the ramoplanin group consisted of four mice.

A further test deals with E. faecium A 6350 Line-R. Description: MIC, NCCLS broth microdilution. It counts as cell-based. In a few lines: as §1
The mark [2] stands for this setting: Enterococcus faecalis, ATCC29212, E. faecalis ATCC29212, Table 6, 1st, read-out: MIC.
[3] abbreviates: Enterococcus faecalis, ATCC29212, E. faecalis ATCC29212, Table 6, 2nd, read-out: MIC.
The mark [4] stands for this setting: Day 22, prior to ramoplanin therapy, control group, 25 mg/kg/day vancomycin.
The mark [5] stands for this setting: Day 22, prior to ramoplanin therapy, ramoplanin group, on 25 mg/kg/day vancomycin.
Where [6] appears, read: Day 29, control group, 25 mg/kg/day vancomycin.
Where [7] appears, read: Day 36, 7 days after completion of ramoplanin therapy, former ramoplanin group, on 25 mg/kg/day vancomycin.
The mark [8] stands for this setting: Day 36, control group, 25 mg/kg/day vancomycin.

Take `CC(=O)NC[C@H]1CN(c2ccc(N3CCOCC3)c(F)c2)C(=O)O1` [Linezolid]: the MIC (commonly the lowest concentration found to suppress growth) is 4 µg/mL (≈ 11.9 µM) with E. faecalis ATCC29212 (setting [2]); 2 µg/mL (≈ 5.93 µM) in the test with E. faecalis ATCC29212 (setting [3]); 8 µg/mL (≈ 23.7 µM) with E. faecium A6343 Line-R (Table 6, 1st, read-out: MIC); 8 µg/mL (≈ 23.7 µM) with E. faecium A6343 Line-R (Table 6, 2nd, read-out: MIC); 4 µg/mL (≈ 11.9 µM) with E. faecium UA392 (Table 6, 1st, read-out: MIC); 2 µg/mL (≈ 5.93 µM) in the test with E. faecium UA392 (Table 6, 2nd, read-out: MIC). Also, the MIC with S. epidermidis ATCC18972 (Table 6, 1st, read-out: MIC) came to 2 µg/mL (≈ 5.93 µM); in the test on S. epidermidis ATCC18972 (Table 6, 2nd, read-out: MIC), 1 µg/mL (≈ 2.96 µM); with S. epidermidis ATCC35984 (Table 6, 1st, read-out: MIC), 4 µg/mL (≈ 11.9 µM); with S. epidermidis ATCC35984 (Table 6, 2nd, read-out: MIC), 2 µg/mL (≈ 5.93 µM).
Take `COc1cccc(OC)c1C(=O)N[C@@H]1C(=O)N2[C@@H]1SC(C)(C)[C@@H]2C(=O)O` [Meth., methicillin]: the MIC in the test with E. faecalis ATCC29212 (E. faecalis ATCC29212, Table 6, 1st) is 16 µg/mL (≈ 42.1 µM); in the test on E. faecalis ATCC29212 (setting [2]), above 16 µg/mL; in the test with E. faecalis ATCC29212 (setting [3]) it was 32 µg/mL (≈ 84.1 µM); in the test on E. faecium A6343 Line-R (Table 6, 1st, read-out: MIC), above 16 µg/mL; in the test with E. faecium A6343 Line-R (Table 6, 2nd, read-out: MIC) it was 64 µg/mL (≈ 168 µM); with E. faecium UA392 (Table 6, 1st, read-out: MIC), above 16 µg/mL. Besides, the MIC with E. faecium UA392 (Table 6, 2nd, read-out: MIC) is above 64 µg/mL; in the test on S. epidermidis ATCC18972 (Table 6, 1st, read-out: MIC) it was above 16 µg/mL; with S. epidermidis ATCC18972 (Table 6, 2nd, read-out: MIC) it was 64 µg/mL (≈ 168 µM); in the test with S. epidermidis ATCC35984 (Table 6, 1st, read-out: MIC), above 16 µg/mL; in the test with S. epidermidis ATCC35984 (Table 6, 2nd, read-out: MIC), above 64 µg/mL.
As for `CN[C@H](CC(C)C)C(=O)N[C@H]1C(=O)N[C@@H](CC(N)=O)C(=O)N[C@H]2C(=O)N[C@H]3C(=O)N[C@H](C(=O)N[C@H](C(=O)O)c4cc(O)cc(O)c4-c4cc3ccc4O)[C@H](O)c3ccc(c(Cl)c3)Oc3cc2cc(c3O[C@@H]2O[C@H](CO)[C@@H](O)[C@H](O)[C@H]2O[C@H]2C[C@](C)(N)[C@H](O)[C@H](C)O2)Oc2ccc(cc2Cl)[C@H]1O` [Vancomycin], the “% Mice with VRE” value in test [1] (setting [4]), in test [1] (setting [5]), in test [1] (setting [6]), in test [1] (setting [7]) and in test [1] (setting [8]) was 100% in each case. Further, the “Enterococci in faeces: Total Enterococci” value was determined as 9.6 log 10 cfu/g faeces in test [1] (setting [4]); 9.8 log 10 cfu/g faeces in test [1] (setting [5]); 9.3 log 10 cfu/g faeces in test [1] (setting [6]); 8.6 log 10 cfu/g faeces in test [1] (setting [7]); 9.6 log 10 cfu/g faeces in test [1] (setting [8]). The “Enterococci in faeces: VRE” value came to 9.7 log 10 cfu/g faeces in test [1] (setting [4]); 9.7 log 10 cfu/g faeces in test [1] (setting [5]); 9.4 log 10 cfu/g faeces in test [1] (setting [6]); 8.7 log 10 cfu/g faeces in test [1] (setting [7]); 9.3 log 10 cfu/g faeces in test [1] (setting [8]). The MIC with E. faecalis ATCC29212 (Enterococcus faecalis, ATCC29212, E. faecalis ATCC29212, CAMHB) was 4 µg/mL (≈ 2.76 µM); against E. faecalis ATCC29212 (Enterococcus faecalis, ATCC29212, E. faecalis ATCC29212, Table 6, 1st), 2 µg/mL (≈ 1.38 µM); in the test with E. faecalis ATCC29212 (Enterococcus faecalis, ATCC29212, E. faecalis ATCC29212, Table 6, 2nd), 2 µg/mL (≈ 1.38 µM); in the test with E. faecium A 6350 Line-R (E. faecium A 6350 Line-R (Table 2), TSB), >16, >16 μg/ml; with E. faecium A 6350 Line-R (Enterococcus faecium, A6350LINER), above 16 µg/mL; in the test on E. faecium A6343 Line-R (CAMHB), 2 µg/mL (≈ 1.38 µM). Besides, the MIC worked out at 2 µg/mL (≈ 1.38 µM) against E. faecium A6343 Line-R (TSB); 1 µg/mL (≈ 0.69 µM) against E. faecium A6343 Line-R (Table 6, 1st); 1 µg/mL (≈ 0.69 µM) against E. faecium A6343 Line-R (Table 6, 2nd); 1 µg/mL (≈ 0.69 µM) against E. faecium UA392 (CAMHB); 2 µg/mL (≈ 1.38 µM) in the test on E. faecium UA392 (TSB); 2 µg/mL (≈ 1.38 µM) against E. faecium UA392 (Table 6, 1st). Further, the MIC against E. faecium UA392 (Table 6, 2nd) stood at 2 µg/mL (≈ 1.38 µM); against S. epidermidis ATCC18972 (CAMHB), 4 µg/mL (≈ 2.76 µM); in the test on S. epidermidis ATCC18972 (TSB), 4 µg/mL (≈ 2.76 µM); in the test with S. epidermidis ATCC18972 (Table 6, 1st) it was 2 µg/mL (≈ 1.38 µM); in the test on S. epidermidis ATCC18972 (Table 6, 2nd), 2 µg/mL (≈ 1.38 µM); against S. epidermidis ATCC35984 (CAMHB) it was 4 µg/mL (≈ 2.76 µM). Besides, the MIC against S. epidermidis ATCC35984 (TSB) is 4 µg/mL (≈ 2.76 µM); against S. epidermidis ATCC35984 (Table 6, 1st), 2 µg/mL (≈ 1.38 µM); against S. epidermidis ATCC35984 (Table 6, 2nd) it was 2 µg/mL (≈ 1.38 µM).
